Common to all, as to format: biochemical
For assay [1], the target named is T1, GST fusion human ERK2 protein (Homo sapiens, UniProt P28482).
T1 construct: purchased Carna Biosciences, Inc; host or cells: E. coli expression system
As to the kind of experiment: ERK2 enzyme assay (2). The conditions noted are these: ERK2 enzyme assay (2); read-out: ERK2 enzyme inhibitory activity (2). Summed up: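 IC50 values come from mobility-shift measurement of phosphorylated versus unphosphorylated 5-FAM peptide substrate after EDTA quench. Beforehand, compound and 1.25 nmol/L E. coli-expressed GST–human ERK2 stood 15 min at room temperature (pH 7.5), then 1 mmol/L ATP and 4.25 μmol/L substrate (final) were added for 120 min at 25 °C.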

The next assay deals with T2, human PI3Kα protein (Homo sapiens, UniProt P42336).
T2 construct: purchased Carna Biosciences, Inc; host or cells: baculovirus expression system
T2 sequence (P42336 whole entry): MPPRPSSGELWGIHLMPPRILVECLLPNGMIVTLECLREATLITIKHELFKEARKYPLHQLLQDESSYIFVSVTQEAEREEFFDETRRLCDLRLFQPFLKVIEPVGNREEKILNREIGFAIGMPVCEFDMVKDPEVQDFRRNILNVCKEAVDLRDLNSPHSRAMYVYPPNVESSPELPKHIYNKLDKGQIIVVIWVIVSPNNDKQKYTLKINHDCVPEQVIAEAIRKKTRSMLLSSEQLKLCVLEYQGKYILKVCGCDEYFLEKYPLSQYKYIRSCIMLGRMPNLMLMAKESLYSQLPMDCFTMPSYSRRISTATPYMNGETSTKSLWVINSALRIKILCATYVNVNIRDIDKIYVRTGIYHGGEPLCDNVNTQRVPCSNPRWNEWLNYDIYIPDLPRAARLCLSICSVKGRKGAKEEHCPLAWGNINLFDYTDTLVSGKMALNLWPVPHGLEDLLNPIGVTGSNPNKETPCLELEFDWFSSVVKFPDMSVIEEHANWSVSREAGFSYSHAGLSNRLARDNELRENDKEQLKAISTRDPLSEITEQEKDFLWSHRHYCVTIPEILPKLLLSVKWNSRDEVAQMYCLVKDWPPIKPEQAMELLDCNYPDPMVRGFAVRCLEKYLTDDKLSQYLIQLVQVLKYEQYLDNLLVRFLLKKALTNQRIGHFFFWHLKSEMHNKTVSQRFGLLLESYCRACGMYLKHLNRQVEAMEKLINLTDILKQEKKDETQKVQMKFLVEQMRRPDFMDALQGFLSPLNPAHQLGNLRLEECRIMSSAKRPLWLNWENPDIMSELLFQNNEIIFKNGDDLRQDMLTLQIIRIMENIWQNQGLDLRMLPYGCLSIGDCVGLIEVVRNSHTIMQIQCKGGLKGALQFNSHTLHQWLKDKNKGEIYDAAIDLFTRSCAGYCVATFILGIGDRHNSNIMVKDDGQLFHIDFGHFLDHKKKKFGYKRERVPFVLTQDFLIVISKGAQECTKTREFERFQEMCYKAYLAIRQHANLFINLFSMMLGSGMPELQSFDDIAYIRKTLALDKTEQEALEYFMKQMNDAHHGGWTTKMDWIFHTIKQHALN
T2 sequence (P27986 whole entry partner): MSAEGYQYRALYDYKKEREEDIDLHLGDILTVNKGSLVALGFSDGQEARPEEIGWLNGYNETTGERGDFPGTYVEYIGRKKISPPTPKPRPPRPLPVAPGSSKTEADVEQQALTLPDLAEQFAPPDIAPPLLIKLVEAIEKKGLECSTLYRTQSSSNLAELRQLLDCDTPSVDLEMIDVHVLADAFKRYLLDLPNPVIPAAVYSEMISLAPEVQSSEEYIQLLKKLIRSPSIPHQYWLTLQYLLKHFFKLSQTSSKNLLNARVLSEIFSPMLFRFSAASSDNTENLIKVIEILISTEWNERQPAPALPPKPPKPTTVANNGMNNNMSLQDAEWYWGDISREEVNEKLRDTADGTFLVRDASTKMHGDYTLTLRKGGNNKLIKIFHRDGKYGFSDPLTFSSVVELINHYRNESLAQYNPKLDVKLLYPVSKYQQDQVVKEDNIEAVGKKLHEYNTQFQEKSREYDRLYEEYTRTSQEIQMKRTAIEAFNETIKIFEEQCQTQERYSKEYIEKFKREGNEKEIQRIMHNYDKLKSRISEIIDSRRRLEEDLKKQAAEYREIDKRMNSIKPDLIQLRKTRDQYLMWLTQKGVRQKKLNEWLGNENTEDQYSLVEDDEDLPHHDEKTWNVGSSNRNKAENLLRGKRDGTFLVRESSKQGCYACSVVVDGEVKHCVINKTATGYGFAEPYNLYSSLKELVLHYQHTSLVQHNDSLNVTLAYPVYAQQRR
In words: PI3Kα enzyme assay (ADP-Glo). The conditions noted are these: read-out: PI3Kα enzyme inhibitory activity. A digest of the protocol: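 Biotinylated human PI3Kα (baculovirus-expressed, 4.5 nmol/L) pre-incubated 15 min with compound in Tris-HCl pH 7.5, MgCl2, BSA; reaction 60 min at 25° C with 50 μmol/L PIP2 and 100 μmol/L ATP final. ADP quantified by ADP-Glo luminescence; IC50 calculated.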
On the technique in general: In ADP-Glo the light output rises with the ADP produced.

For assay [2], the target named is T1, GST fusion human ERK2 protein. As to the kind of experiment: ERK2 enzyme assay (1). Conditions: ERK2 enzyme assay (1); read-out: ERK2 enzyme inhibitory activity (1). A digest of the protocol: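 IC50 derived from the proportion of phosphorylated 5-FAM peptide, separated from unphosphorylated peptide by microfluidic mobility shift. Compound was first preincubated 15 min at room temperature with 2.5 nmol/L kinase at pH 7.5, then 43.1 μmol/L ATP plus 4.25 μmol/L substrate reacted 120 min at 25 °C.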

T1 sequence (P28482 whole entry, the tested form may be a part): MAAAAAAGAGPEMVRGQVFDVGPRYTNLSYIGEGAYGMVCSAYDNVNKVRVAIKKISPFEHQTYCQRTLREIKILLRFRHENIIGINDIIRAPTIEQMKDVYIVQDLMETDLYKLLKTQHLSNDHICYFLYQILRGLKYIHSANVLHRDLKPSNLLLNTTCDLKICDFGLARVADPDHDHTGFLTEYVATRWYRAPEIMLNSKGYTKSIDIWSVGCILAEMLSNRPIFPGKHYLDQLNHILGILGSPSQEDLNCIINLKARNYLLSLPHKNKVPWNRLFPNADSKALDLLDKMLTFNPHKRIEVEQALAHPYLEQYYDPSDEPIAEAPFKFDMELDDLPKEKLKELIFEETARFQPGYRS

Turning to `CNC(=O)CCn1cc(-c2cnc3ccc(Nc4nnc(C5CCCC5)s4)nc3c2)cn1` [Example 0342], the IC50 (in assay [1]; on human PI3Kα protein; in assay [2]) was under 1 µM each time.

Consider `NC(=O)CCn1cc(-c2cnc3ccc(Nc4nnc(C5CCCC5)s4)nc3c2)cn1` [Example 0343], for which the IC50 (in assay [1]; at human PI3Kα protein; in assay [2]) was under 1 µM in each case.

Regarding `c1nc2ccc(Nc3nnc(C4CCCC4)s3)nc2cc1-c1cnn(CCCN2CCCCC2)c1` [Example 0344, 5-cyclopentyl-N-(7-(1-(3-(piperidin-1-yl)propyl)-1H-pyrazol-4-yl)-1,5-naphthyridin-2-yl)-1,3,4-thiadiazole-2-amine], the IC50 (in assay [1]; on human PI3Kα protein; in assay [2]) was under 1 µM in each case.

Regarding `c1nc2ccc(Nc3nnc(C4CCCC4)s3)nc2cc1-c1cnn(CCCN2CCC2)c1` [Example 0345], the IC50 (in assay [1]; at human PI3Kα protein; in assay [2]) was under 1 µM each time.

For `F[C@H]1CCN(CCCn2cc(-c3cnc4ccc(Nc5nnc(C6CCCC6)s5)nc4c3)cn2)C1` [Example 0346], the IC50 (in assay [1]; at human PI3Kα protein; in assay [2]) was under 1 µM in each case.

As for `Cn1cc(-c2cnc3ccc(Nc4nnc(C5CCCC5)s4)nc3c2Cl)cn1` [Example 0350, N-(8-chloro-7-(1-methyl-1H-pyrazol-4-yl)-1,5-naphthyridin-2-yl)-5-cyclopentyl-1,3,4-thiadiazole-2-amine], the values for the IC50 (in assay [1]; on human PI3Kα protein; in assay [2]) were under 1 µM, 1 to 10 µM and under 1 µM, respectively.

Regarding `F[C@@H]1CCN(CCCn2cc(-c3cnc4ccc(Nc5nnc(C6CCCC6)s5)nc4c3)cn2)C1` [Example 0351, (R)-5-cyclopentyl-N-(7-(1-(3-(3-fluoropyrrolidin-1-yl)propyl)-1H-pyrazol-4-yl)-1,5-naphthyridin-2-yl)-1,3,4-thiadiazole-2-amine], the IC50 (in assay [1]; at human PI3Kα protein; in assay [2]) was under 1 µM each time.

For the molecule `FC1(F)CCN(CCCn2cc(-c3cnc4ccc(Nc5nnc(C6CCCC6)s5)nc4c3)cn2)CC1` [Example 0353], the IC50 (in assay [1]; on human PI3Kα protein; in assay [2]) was under 1 µM in each case.

On to `FC1(F)CN(CCCn2cc(-c3cnc4ccc(Nc5nnc(C6CCCC6)s5)nc4c3)cn2)C1` [Example 0354], for which the IC50 (in assay [1]; at human PI3Kα protein; in assay [2]) was under 1 µM throughout.

With `OC(CN1CCCC1)Cn1cc(-c2cnc3ccc(Nc4nnc(C5CCCC5)s4)nc3c2)cn1` (stereo not drawn) [Example 0356, 1-(4-(6-((5-Cyclopentyl-1,3,4-thiadiazol-2-yl)amino)-1,5-naphthyridin-3-yl)-1H-pyrazol-1-yl)-3-(pyrrolidin-1-yl)propan-2-ol], the IC50 (in assay [1]; on human PI3Kα protein; in assay [2]) was under 1 µM in each case.

For `CCOc1c(-c2cnn(C)c2)cnc2ccc(Nc3nnc(C4CCCC4)s3)nc12` [Example 0358, 5-Cyclopentyl-N-(8-ethoxy-7-(1-methyl-1H-pyrazol-4-yl)-1,5-naphthyridin-2-yl)-1,3,4-thiadiazole-2-amine], the IC50 (in assay [1]; on human PI3Kα protein; in assay [2]) was under 1 µM in each case.

As for `CC(C)Oc1c(-c2cnn(C)c2)cnc2ccc(Nc3nnc(C4CCCC4)s3)nc12` [Example 0359, 5-cyclopentyl-N-(8-isopropyloxy-7-(1-methyl-1H-pyrazol-4-yl)-1,5-naphthyridin-2-yl)-1,3,4-thiadiazole-2-amine], the IC50 in assay [1] is 1 to 10 µM; on human PI3Kα protein, under 1 µM; in assay [2], under 1 µM.

On to `Cc1c(-c2cnc3ccc(Nc4nnc(C(C)C)s4)nc3c2)cnn1CCCN1CCCC1` [Example 0360, 5-Isopropyl-N-(7-(5-methyl-1-(3-(pyrrolidin-1-yl)propyl)-1H-pyrazol-4-yl)-1,5-naphthyridin-2-yl)-1,3,4-thiadiazole-2-amine], for which the IC50 (in assay [1]; on human PI3Kα protein; in assay [2]) was under 1 µM in each case.

The values above are taken from patent publication US9783536B2, “Nitrogen-containing heterocyclic compound or salt thereof” (FUJIFILM Corporation, priority 2013, dated 2017).
